Read-outs that look alike come from different tables or passages of the source.
Legend:
[1] = system: CT/CGRP enhancer; assay: CT/CGRP promoter/enhancer luciferase reporter transfection assay in CA77 cells; format: cell-based, rat
[2] = system: CT/CGRP enhancer; assay: CT/CGRP promoter/enhancer luciferase reporter transfection assay in HeLa cells; format: cell-based, human
[3] = system: CT/CGRP enhancer; assay: CT/CGRP promoter/enhancer luciferase reporter transfection assay in Rat1 fibroblast cells; format: cell-based, rat
From the text: Reporter fusion genes were constructed for experiments to localize cis-active elements responsible for glucocorticoid repression of the CT/CGRP gene.
(§1) The 44-2C rat medullary thyroid carcinoma cell line was maintained in DMEM (high glucose) with 1% equine serum (HyClone Laboratories, Logan, Utah) and 0.1% L-glutamine; CA77 rat medullary thyroid carcinoma cells in Ham's F-12 medium/DMEM (low glucose)(1:1) with 10% fetal bovine serum (HyClone Laboratories); HeLa human epithelial derived cells in Ham's F-12 medium with 10% fetal bovine serum; and Rat1 fibroblast cells in DMEM (high glucose) with 10% calf serum. Also, 100 units/ml penicillin and 100 μg/ml streptomycin (GIBCO) were added to each culture medium.
(§2) Transfections were carried out by growing cells to approximately 80% confluency, harvesting them by brief trypsin/EDTA treatment, and resuspending them in Ca^2+ /Mg^2+ -free PBS.
Activity of the reporter genes and control constructs was measured by luciferase, CAT, or β-Galactosidase assays. […] After centrifugation, 20-50 μl of supernatant cell extract was assayed for luciferase activity as previously described (Braiser, A. R., Tate, J. E., and Habener, J. F. (1989) Biotechniques 7, 1116-1122) using a luminometer (Analytical Luminescence Laboratory Monolight 2001). […]

[4] = system: CT/CGRP enhancer; assay: CT/CGRP promoter/enhancer reporter gene (luciferase/CAT) transfection assay in 44-2C cells
From the text: as §1, §2
In the retinoic acid experiments, the cells were treated essentially as above except that an apparently critical parameter for retinoic acid inhibition was that the CA77 cells could not be aggregated into clumps. To be consistent, all cell types were subcultured by trypsin treatment 1 day prior to the experiment, except for the 44-2C cells, which often required 2 days to firmly attach. About 4-5×10^6 cells in 0.8 ml were transfected with supercoiled DNA by electroporation using a Biorad Gene Pulser apparatus at 200 volts for the CA77 cells, 220 volts for the HeLa cells, and 260 volts for the 44-2C cells, all with a capacitance of 960 microfarads. The same amount of DNA (20 μg) was used per cuvette unless otherwise indicated. For the α-RXR cotransfection assays, 10 μg 18 bp CT/CGRP-TK-luc plasmid, 18 μg RSV-α-RAR plasmid, or 2 μg β-actin-RXR plasmid (brought to 30 μg total DNA with CMV-β-gal plasmid) were transfected into the cells (constructs described in Glass, C. K., S. M. Lipkin, O. V. Devary, and M. G. Rosenfeld (1989) Cell 59, 697-708; Glass, C. K., O. V. Devary, and M. G. Rosenfeld (1990) Cell 63, 729-738). The transfected cells from a single cuvette were then split between two 60 mm dishes and treated with 1 mM retinoic acid (Sigma) or the vehicle (0.01% ethanol). About 50 to 80% cell survival of the electroporation procedure was observed, except the 44-2C cells, in which approximately 25% of the cells were recovered. The cells were harvested 18-25 hours after transfection. Activities are reported per 50 μg protein unless otherwise noted.
Activity of the reporter genes and control constructs was measured by luciferase, CAT, or β-Galactosidase assays.

[5] = system: cytomegalovirus promoter / thymidine kinase promoter; assay: Control reporter genes CMV-luc and TK-luc in CA77 and 44-2C cells; format: cell-based, rat; conditions: 1 μM retinoic acid
[6] = system: H/OB, OB2, HB1 and Oct-1 complexes on CT/CGRP enhancer; assay: Electrophoretic mobility shift assay of CT/CGRP enhancer complexes in CA77 nuclear extracts; format: biochemical, rat; conditions: nuclear extracts from CA77 cells treated 24 hours with retinoic acid
Method: To perform electrophoretic mobility shift assays, nuclei were harvested from approximately 10^8 cells using a previously described miniextract preparation protocol, with one modification (Lee, K. A. W., and Green, M. R. (1990) Methods Enzymol. 181, 20-25). Instead of dialyzing the extract to remove excess NaCl, the extract was diluted 1:1 with extract buffer lacking NaCl. Aliquots of the diluted extract were stored at -70° C. Annealed oligonucleotide duplexes (10 pmol) containing recessed 3' termini were labeled for use as probes by incorporation of [^32 P]dATP (25 μCi, 3000 Ci/mmol) using Klenow DNA polymerase. Both strands of blunt-ended oligonucleotides (10 pmol) were labeled separately using T4 polynucleotide kinase and [γ-^32 P]ATP (20 μCi, 3000 Ci/mmol), then annealed. Unlabeled oligonucleotides used for competition assays were annealed and then treated with Klenow DNA polymerase if the ends were not already blunt. All probes and competitor DNAs were purified over Sephadex G50 columns.
The binding reaction (20 μl) contained approximately 3 μg (1-2 μl) of nuclear extract, 0.02 pmol of ^32 P-labeled DNA probe (50,000-100,000 cpm), 10 mM Tris-HCl, pH 7.5, 5% glycerol, 50 mM NaCl, 1 mM EDTA, and 1 mM dithiothreitol. Also, 0.1 μg of poly [d(I-C)] […] Unlabeled competitors were preincubated with nuclear extracts 10 minutes on ice prior to addition of probe. […]

[7] = system: retinoic acid responsive element from the β-retinoic acid receptor gene (RARE-TK-luc); assay: cells; conditions: Rattus norvegicus
Method: In the retinoic acid experiments, the cells were treated essentially as above except that an apparently critical parameter for retinoic acid inhibition was that the CA77 cells could not be aggregated into clumps. […] About 4-5×10^6 cells in 0.8 ml were transfected with supercoiled DNA by electroporation using a Biorad Gene Pulser apparatus at 200 volts for the CA77 cells, 220 volts for the HeLa cells, and 260 volts for the 44-2C cells, all with a capacitance of 960 microfarads. The same amount of DNA (20 μg) was used per cuvette unless otherwise indicated. For the α-RXR cotransfection assays, 10 μg 18 bp CT/CGRP-TK-luc plasmid, 18 μg RSV-α-RAR plasmid, or 2 μg β-actin-RXR plasmid (brought to 30 μg total DNA with CMV-β-gal plasmid) were transfected into the cells (constructs described in Glass, C. K., S. M. Lipkin, O. V. Devary, and M. G. Rosenfeld (1989) Cell 59, 697-708; Glass, C. K., O. V. Devary, and M. G. Rosenfeld (1990) Cell 63, 729-738). The transfected cells from a single cuvette were then split between two 60 mm dishes and treated with 1 mM retinoic acid (Sigma) or the vehicle (0.01% ethanol). […] The cells were harvested 18-25 hours after transfection. Activities are reported per 50 μg protein unless otherwise noted.
Activity of the reporter genes and control constructs was measured by luciferase, CAT, or β-Galactosidase assays. To carry out the luciferase assays, cells were washed twice in PBS, harvested by scraping into PBS and then lysed in 100 μl of Triton lysis buffer (1% Triton X-100, 25 mM glycylclycine, pH 7.8, 15 mM MgSO4, 1 mM dithiothreitol). After centrifugation, 20-50 μl of supernatant cell extract was assayed for luciferase activity as previously described (Braiser, A. R., Tate, J. E., and Habener, J. F. (1989) Biotechniques 7, 1116-1122) using a luminometer (Analytical Luminescence Laboratory Monolight 2001). The assay was linear between 100 (background) and at least 800,000 light units.

[8] = target: nuclear retinoic acid receptor (RAR); conditions: literature; read-out: nuclear retinoic acid receptor (RAR) binding affinity Kd; cited from earlier work
[9] = system: calcitonin and CGRP mRNA; conditions: CA77 cells, retinoic acid treatment, literature; cited from earlier work

CC1=C(/C=C/C(C)=C/C=C/C(C)=C/C=O)C(C)(C)CCC1 [Retinal, retinal]
minimal effective concentration ([1]; Rattus norvegicus, 1125 CAL-luc, read-out: concentrations at which CT/CGRP promoter activity was repressed): ≥ 0.1 µM
IC50 ([1]; Rattus norvegicus, 1125 CAL-luc, read-out: half-maximal repression of CT/CGRP promoter activity): 300 nM

C[C@@H]1C[C@H]2[C@@H]3CCC4=CC(=O)C=C[C@]4(C)[C@@]3(F)[C@@H](O)C[C@]2(C)[C@@]1(O)C(=O)CO [dexamethasone]
repression of calcitonin/CGRP promoter fusion genes containing the -920-1125-bp element ([1]; dexamethasone treatment): did not repress
repression with smaller elements that include the 18-bp region (TK-LUC) ([1]; p<0.01): 1.6 fold
repression of activity of the -920-1125-bp region (TK-LUC) ([1]; p<0.05): 1.2 fold
repression of activity of the -920-1125 enhancer ([2]; HeLa cells): did not repress
stimulation of reporter activity of all plasmids including TK-LUC ([2]; non-neuroendocrine cells): 1.5-2 fold
repression of activity of the -920-1125 enhancer [3]: did not repress
repression of -920-1125 TK-LUC fusion gene expression ([4]; 44-2C cells, 500 nM dexamethasone): 2.5-3 fold
repression of promoter activity of fusion genes containing at least 1125 bp of upstream sequences ([4]; 44-2C cells, 500 nM dexamethasone, 24 h): 2.5-4.5 fold
repression of -920-1125 TK-LUC fusion gene expression, in a few experiments ([4]; 44-2C cells, 500 nM dexamethasone, a few experiments): ≤ 10 fold
effect on gene activity from the shorter constructs ([4]; 44-2C cells, 500 nM dexamethasone, constructs lacking -920-1125 region): slightly stimulated
repression with -1091-1017 and -1043-1025 elements (TK-LUC) ([4]; 44-2C cells, dexamethasone): 24 fold
repression of -920-1125-TK-LUC promoter activity in dose response ([4]; 44-2C cells, dexamethasone concentrations above 50 nM, 24 h): approximately 10 fold
IC50 ([4]; Rattus norvegicus, 24 h, read-out: dexamethasone concentration for half-maximal inhibition of -920-1125-TK-LUC): 2.5 nM

CC1=C(/C=C/C(C)=C/C=C/C(C)=C/C(=O)O)C(C)(C)CCC1 [retinoic acid]
retinoic acid dependent repression with 75 bp and 18 bp fragments (TK-luc) [1]: comparable to the full 205 bp region
retinoic acid dependent repression with 1039-1125-TK-luc and 920-1038-TK-luc [1]: Neither 1039-1125-TK-luc nor 920-1038-TK-luc exhibited retinoic acid dependent repression
retinoic acid repression with HLH or Oct mutant constructs [1]: neither the HLH or Oct mutant constructs conferred retinoic acid repression
maximal repression of 1125 CAL-luc, decrease of control activity ([1]; 100 nM retinoic acid): 3 fold
repression of promoter fragments containing 920 bp or less ([1]; 1 μM retinoic acid): not repressed
decrease in promoter activity of luciferase fusion genes containing 1125 bp or more 5' flanking sequences ([1]; 1 μM retinoic acid, 24 hours): 2-3 fold
repression in CAL1125-luc activity without cotransfected receptor ([1]; 1 μM retinoic acid, parallel cultures): 2 fold
retinoic acid dependent repression in CAL1125-luc activity with cotransfected α-RAR ([1]; 1 μM retinoic acid, α-RAR expression vector): 5 fold
IC50 ([1]; Rattus norvegicus, read-out: amount required for half-maximal repression of 1125 CAL-luc): ~0.2 nM
effect on 1125-920-TK-luc activity ([2]; HeLa cells, 1 μM retinoic acid, also with α-RAR/α-RXR cotransfection): no effect
effect on TK-luc activity ([5]; 44-2C cells): no effect
effect on CMV-luc and TK-luc ([5]; CA77 cells): not significantly affected
change in OB2, HB1, or Oct-1 complexes [6]: no significant change
decrease in H/OB complex (densitometric scans) [6]: ~2 fold
fold induction at 1 µM ([7]; read-out: increase in RARE-TK-luc activity, 44-2C cells, 1 μM retinoic acid): 35
fold induction at 1 µM ([7]; read-out: increase in RARE-TK-luc activity, CA77 cells, 1 μM retinoic acid, no cotransfected receptor): 5
fold induction at 1 µM ([7]; read-out: retinoic acid dependent stimulation of RARE-TK-luc activity with cotransfected α-RAR, CA77 cells, 1 μM retinoic acid, α-RAR expression vector): 15
Kd [8]: 0.2 nM
decrease in calcitonin and CGRP mRNA levels [9]: 2-3 fold
repression of 1125-920-TK-luc activity ([4]; 44-2C cells, 1 μM retinoic acid): 2 fold

Reference: patent publication US6159735A, “Calcitonin/calcitonin gene related peptide enhancer element and associated DNA binding proteins” (University of Iowa Research Foundation, priority 1995, dated 2000)
